This is an account of results in article PMC9130233, “An inhibitor of RORγ for chronic pulmonary obstructive disease treatment” (Scientific Reports, 2022).

Experiment [1] relates to T1, NK3.
T1 construct: Eurofins Cerep
As to the kind of experiment: Cerep panel, NK3. An excerpt: (§1) Based on the homology of the ligand binding domains, 3 different isoforms of ROR (hRORα, hRORβ and hRORγ) are reported. Small variations in the LBD regions possibly lead to differences in competitive binding between the nuclear receptors of the ROR isoforms (Fig. 1b). Similar to the assessment of RORγ binding assay, TR-FRET binding assays were also used to assess the affinity of PCCR-1 for other ROR isoforms. […] This was reconfirmed in cellular functional assays for the selected isoforms and nuclear receptors using Gal4 DBD with luciferase reporter system from Indigo (PA, USA). […] In addition, both cellular agonist and antagonist effects as well as for enzyme activity were evaluated with a known reference compound for each target, using a radiolabeled method (Eurofins Cerep, France, Table 1).

The subject of experiment [2] is Th1 (IL-2 and IFN-γ) and Th2 (IL-4, IL-13 and IL-10) dependent cytokines in hPBMCs. As to the kind of experiment: Th1 and Th2 cytokine release, human PBMC, TCR activating conditions. Format: cell-based. The following applies: hPBMC, even at 10 µM. As to the method: (§2) An increase in the levels of Th17 dependent cytokine in the peripheral blood of COPD patients as compared to the Th1 and Th2 dependent cytokines has been well documented in a subset of COPD patients. A comparative study was performed under TCR activating conditions to evaluate the potencies of PCCR-1 for inhibition across Th1, Th2 and Th17 dependent cytokines using hPBMCs.
(§3) Human whole blood from healthy subjects were procured from Clinical Research Unit, Sanpada. Clinical Research Center Glenmark (Plot No. D, 508, Turbhe, TTC Industrial Area, MIDC, Sanpada, Navi Mumbai, Maharashtra 400705, India). PBMCs were isolated using heparinized blood with Ficoll Histopaque. Briefly, the cells were seeded in 96-well plate pre-coated with human anti-CD3 mAb (10 µg/mL), post 30 min of compound treatment cells were stimulated with human anti-CD28 mAb (2 µg/mL). After 72 h of culture, the supernatant was collected for Th1/Th2 cytokines; IFN-γ, IL-2, IL-4 and IL-10 and measured by ELISA. For Th17 polarization assay, the following cytokine cocktail was used: IL-1β (10 ng/ml), IL-23(10 ng/ml), IL-6 (50 ng/ml), TGF-β1 (3 ng/ml), IL-2 (20U/ml) and supernatants were used for measuring IL-17 and IL-22 by ELISA.

Experiment [3] concerns IL-17F cytokine from human PBMC. Kind of experiment: IL-17F inhibition, human PBMC. The experiment is classed as cell-based. The following applies: hPBMC, read-out: potency, IL-17F levels.
Experiment [4] deals with mPPARγ. Kind of experiment: Nuclear receptors: functional assay, mPPARγ agonism. Set-up: key: NSE No significant effect; V wk very weak (very low-level agonist activity seen with mPPARγ). The experiment is classed as cell-based, mouse. The following applies: nuclear receptors: functional assays.
Text: as §1

For experiment [5], the system named is IL-17A release in human PBMC. Kind of experiment: IL-17A release, human PBMC, anti-CD3 + anti-CD28. The experiment is classed as cell-based.
Text: Inhibition of RORγ by PCCR-1 was also estimated in a functional assay by measuring the inhibition of Th17 dependent cytokine IL-17A release in human peripheral blood mononuclear cells (PBMCs), mouse splenocytes and canine PBMC stimulated with their respective anti-CD3 and anti-CD28 antibodies.
as §3

Experiment [6] relates to IL-22 in hPBMCs. As to the kind of experiment: IL-22 release, human PBMC, TCR activating conditions. The experiment is classed as cell-based. The following applies: read-out: hIL-22 IC50. The method, then: as §2, §3
The subject of experiment [7] is T2, LXRβ.
T2 construct: purchased Invitrogen
As to the kind of experiment: TR-FRET selectivity binding assay, LXRβ.
Text: as §1
For selectivity, the ROR isoforms RORα, FXR, LXRα, LXRβ, RXR, RARα were incubated with compound for 60 min at 22 °C followed by detection mix containing respective agonist (All trans retinoic acid for RARα, T0901317 for LXRα, LXRβ, 9-cis Retinoic acid for RXR, GW-4064 for FXR) and coactivator peptide (FD22 for RORα, PGC1α for RXR, RARα, TRAP220 for LXRα, LXRβ, SRC2-2 for FXR) and Tb-anti GST antibody prepared in assay buffer were added into a 384-well white plate. Reading taken after overnight incubation and the data analysis done as per the protocol mentioned in RORγt-LBD and co-activator ligand binding assay.

Experiment [8] has as its target T3, human RORγ LBD (Homo sapiens, UniProt P51449).
T3 construct: RORC-LBD region 229-497aa; made in house; host or cells: Escherichia coli BL21-DE3
As to the kind of experiment: RORγt-LBD co-activator ligand binding TR-FRET assay, human. The following applies: n = 15. An excerpt: To identify small molecule RORγ inhibitors, we conducted in vitro screening using a TR-FRET binding assay to determine the inhibition of RORγ with a series of different compounds. With extensive effort and from hit identification to lead optimization, PCCR-1 was identified[29] (Fig. 1A). Based on the homology of the ligand binding domains (LBD) between different ROR isoforms (hRORα, hRORβ and hRORγ), slight variations have been observed in the LBD regions which possibly lead to differences in competitive binding between the isoforms (Fig. 1B). Simultaneous binding of a tracer and antibody results in an increase in fluorescence resonance energy transfer (FRET), which decreases with displacement of the tracer upon inhibitor binding.
The human and mouse RORγt cDNA clones were obtained from OriGene (MD USA). […] The next day, plate was read on Infinite F500 reader (Magellan Tecan Switzerland). […] The percent activity of each dilution was determined as the ratio of background corrected signal to the background corrected signal of wells receiving only DMSO. IC50 values were determined by fitting percent inhibition data in GraphPad Prism (version-5.01) software.
Background: TR-FRET usually uses a lanthanide donor and a delayed reading to cut background.

The structures appear in SMILES notation. Like-named read-outs stand apart in the source and are kept apart here.

T3 sequence (P51449 250-518): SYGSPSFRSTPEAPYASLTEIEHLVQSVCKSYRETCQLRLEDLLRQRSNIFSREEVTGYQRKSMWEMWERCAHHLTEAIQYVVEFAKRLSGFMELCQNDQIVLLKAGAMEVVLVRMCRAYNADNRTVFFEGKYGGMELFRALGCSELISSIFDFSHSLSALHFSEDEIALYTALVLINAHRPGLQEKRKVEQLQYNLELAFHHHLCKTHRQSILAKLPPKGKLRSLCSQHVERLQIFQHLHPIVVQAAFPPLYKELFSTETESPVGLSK

One may read the % inhibition as how much of the control response was suppressed. For `CCn1c(C(C)(C)Oc2ccc(F)cc2F)nc2cc(NC(=O)Cc3ccc(S(=O)(=O)CC)cc3)ccc21` [PCCR-1], the “% inhibition at 10 µM NK3” value in experiment [1] stood at 56%. For the same molecule, in experiment [2], the “inhibition of Th1 (IL-2 and IFN-γ) and Th2 (IL-4, IL-13 and IL-10) dependent cytokines” value is “did not show significant inhibition”. The IC50 in experiment [3] is 0.788 µM; in experiment [5] (TCR activating conditions, comparative Th1/Th2/Th17 study (Fig. 3A), read-out: hIL-17 (IL-17A) IC50), 0.0943 µM; in experiment [5] (anti-CD3 + anti-CD28, n = 24 (Fig. 1D), read-out: Cellular activity: Human IC50, IL-17A release), 0.117 µM; in experiment [6] it was 0.297 µM; in experiment [8], 0.0345 µM. Also, the “mPPARγ(agonism)” value in experiment [4] is listed as “V wk”. Moreover, the “% Inhibition LXRβ” value is 28.11% in experiment [7] (1 µM) and 46.66% in experiment [7] (10 µM). For the same molecule, the “Fold over hRORγ, LXRβ” value in experiment [7] (vs RORg IC50 31.87 nM) is on record as above 313.7 fold.
